Results taken from PubChem BioAssay AID1963840 (Molecular Pharmacology Branch, DTP, NCI, 2024).

Tested on: 695427-040-R-J1-PDC complex spheroid viability
Assay: Anticancer human tumor 695427-040-R-J1-PDC patient-derived colon adenocarcinoma cell line growth inhibition [POLQ]
Conditions: for IC50: curve of first compound; for viability, T/C: stronger effect = lower value; active means viability on the fitted dose curve at most 10% of control; inactive means the rest
Outline: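 Patient-derived tumour cells were co-cultured with HUVEC and mesenchymal stem cells as multicellular spheroids at 37 °C. They were treated with POLQ inhibitors (novobiocin, ART-558, RP6685) alone or combined with other agents. Top concentrations were at or near clinical Cmax (otherwise 10 microM; SN-38 at 1 microM), decreasing in half-log steps.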
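Further: spheroids exposed to compounds for seven days.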
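Wherever viability, T/C is given: 100% = DMSO vehicle control viability.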

C#Cc1c(F)ccc2cc(O)cc(-c3ncc4c(N5CC6CCC(C5)N6)nc(OCC56CCCN5CC(F)C6)nc4c3F)c12 (centres undefined) + COC1C(OC(N)=O)C(O)C(Oc2ccc3c(O)c(NC(=O)c4ccc(O)c(CC=C(C)C)c4)c(=O)oc3c2C)OC1(C)C
> 10 µM: IC50 (second compound 0.0316 µM) | IC50 (second compound 0.1 µM) | IC50 (second compound 0.316 µM) | IC50 (second compound 1 µM) | IC50 (second compound 3.16 µM) | IC50 (second compound 10 µM)
inactive: viability, T/C (second compound 0.0316 µM, first compound 0.0316 µM) 113% | viability, T/C (second compound 0.0316 µM, first compound 0.1 µM) 99.8% | viability, T/C (second compound 0.0316 µM, first compound 0.316 µM) 108% | viability, T/C (second compound 0.0316 µM, first compound 1 µM) 107% | viability, T/C (second compound 0.0316 µM, first compound 3.16 µM) 97.3% | viability, T/C (second compound 0.0316 µM, first compound 10 µM) 96.5% | viability, T/C (second compound 0.1 µM, first compound 0.0316 µM) 110% | viability, T/C (second compound 0.1 µM, first compound 0.1 µM) 97.6% | viability, T/C (second compound 0.1 µM, first compound 0.316 µM) 105% | viability, T/C (second compound 0.1 µM, first compound 1 µM) 99.9% | viability, T/C (second compound 0.1 µM, first compound 3.16 µM) 102% | viability, T/C (second compound 0.1 µM, first compound 10 µM) 84.7% | viability, T/C (second compound 0.316 µM, first compound 0.0316 µM) 107% | viability, T/C (second compound 0.316 µM, first compound 0.1 µM) 101% | viability, T/C (second compound 0.316 µM, first compound 0.316 µM) 98.2% | viability, T/C (second compound 0.316 µM, first compound 1 µM) 99.2% | viability, T/C (second compound 0.316 µM, first compound 3.16 µM) 95% | viability, T/C (second compound 0.316 µM, first compound 10 µM) 90% | viability, T/C (second compound 1 µM, first compound 0.0316 µM) 101% | viability, T/C (second compound 1 µM, first compound 0.1 µM) 97.9% | viability, T/C (second compound 1 µM, first compound 0.316 µM) 108% | viability, T/C (second compound 1 µM, first compound 1 µM) 97.1% | viability, T/C (second compound 1 µM, first compound 3.16 µM) 97.1% | viability, T/C (second compound 1 µM, first compound 10 µM) 91% | viability, T/C (second compound 3.16 µM, first compound 0.0316 µM) 105% | viability, T/C (second compound 3.16 µM, first compound 0.1 µM) 109% | viability, T/C (second compound 3.16 µM, first compound 0.316 µM) 98.7% | viability, T/C (second compound 3.16 µM, first compound 1 µM) 94.8% | viability, T/C (second compound 3.16 µM, first compound 3.16 µM) 104% | viability, T/C (second compound 3.16 µM, first compound 10 µM) 90.7% | viability, T/C (second compound 10 µM, first compound 0.0316 µM) 107% | viability, T/C (second compound 10 µM, first compound 0.1 µM) 104% | viability, T/C (second compound 10 µM, first compound 0.316 µM) 104% | viability, T/C (second compound 10 µM, first compound 1 µM) 95.6% | viability, T/C (second compound 10 µM, first compound 3.16 µM) 101% | viability, T/C (second compound 10 µM, first compound 10 µM) 80.4%

CC(=O)O[C@H]1C(=O)[C@@]2(C)[C@H]([C@H](OC(=O)c3ccccc3)[C@]3(O)C[C@H](OC(=O)[C@H](O)[C@@H](NC(=O)c4ccccc4)c4ccccc4)C(C)=C1C3(C)C)[C@]1(OC(C)=O)CO[C@@H]1C[C@@H]2O + COC1C(OC(N)=O)C(O)C(Oc2ccc3c(O)c(NC(=O)c4ccc(O)c(CC=C(C)C)c4)c(=O)oc3c2C)OC1(C)C
inactive: viability, T/C (second compound 0.0316 µM, first compound 0.00949 µM) 96.4% | viability, T/C (second compound 0.0316 µM, first compound 0.03 µM) 85.9% | viability, T/C (second compound 0.0316 µM, first compound 0.0949 µM) 84.7% | viability, T/C (second compound 0.0316 µM, first compound 0.3 µM) 89.5% | viability, T/C (second compound 0.0316 µM, first compound 0.949 µM) 84.6% | viability, T/C (second compound 0.0316 µM, first compound 3 µM) 72.2% | viability, T/C (second compound 0.1 µM, first compound 0.00949 µM) 96.4% | viability, T/C (second compound 0.1 µM, first compound 0.03 µM) 98.1% | viability, T/C (second compound 0.1 µM, first compound 0.0949 µM) 94.1% | viability, T/C (second compound 0.1 µM, first compound 0.3 µM) 85.9% | viability, T/C (second compound 0.1 µM, first compound 0.949 µM) 89.8% | viability, T/C (second compound 0.1 µM, first compound 3 µM) 72.4% | viability, T/C (second compound 0.316 µM, first compound 0.00949 µM) 103% | viability, T/C (second compound 0.316 µM, first compound 0.03 µM) 91.4% | viability, T/C (second compound 0.316 µM, first compound 0.0949 µM) 91% | viability, T/C (second compound 0.316 µM, first compound 0.3 µM) 92.4% | viability, T/C (second compound 0.316 µM, first compound 0.949 µM) 88.1% | viability, T/C (second compound 0.316 µM, first compound 3 µM) 77.9% | viability, T/C (second compound 1 µM, first compound 0.00949 µM) 99.2% | viability, T/C (second compound 1 µM, first compound 0.03 µM) 93.3% | viability, T/C (second compound 1 µM, first compound 0.0949 µM) 86.1% | viability, T/C (second compound 1 µM, first compound 0.3 µM) 90.5% | viability, T/C (second compound 1 µM, first compound 0.949 µM) 88.5% | viability, T/C (second compound 1 µM, first compound 3 µM) 78.6% | viability, T/C (second compound 3.16 µM, first compound 0.00949 µM) 92.5% | viability, T/C (second compound 3.16 µM, first compound 0.03 µM) 97.9% | viability, T/C (second compound 3.16 µM, first compound 0.0949 µM) 86.7% | viability, T/C (second compound 3.16 µM, first compound 0.3 µM) 87.3% | viability, T/C (second compound 3.16 µM, first compound 0.949 µM) 87.6% | viability, T/C (second compound 3.16 µM, first compound 3 µM) 76.3% | viability, T/C (second compound 10 µM, first compound 0.00949 µM) 93.7% | viability, T/C (second compound 10 µM, first compound 0.03 µM) 97.2% | viability, T/C (second compound 10 µM, first compound 0.0949 µM) 91.7% | viability, T/C (second compound 10 µM, first compound 0.3 µM) 88.5% | viability, T/C (second compound 10 µM, first compound 0.949 µM) 87.6% | viability, T/C (second compound 10 µM, first compound 3 µM) 77%
> 3 µM: IC50 (second compound 0.0316 µM) | IC50 (second compound 0.1 µM) | IC50 (second compound 0.316 µM) | IC50 (second compound 1 µM) | IC50 (second compound 3.16 µM) | IC50 (second compound 10 µM)
